The values that follow come from BindingDB's records for doi:10.1021/acs.jmedchem.8b00082 (Abbvie, 2018).

The nature of assay [1]: Inhibition of NS5A in HuH7 cell infected HCV genotype 1a H77 assessed as decrease in viral replication after 3 days in presence of 40% human plasma by luciferase reporter gene assay. (In a reporter assay the amount or activity of a reporter protein is the signal.)
A short description of assay [2]: Inhibition of HCV genotype 1b Con1 NS5A expressed in HuH7 cell infected HCV genotype 3a assessed as decrease in viral replication after 3 days by luciferase reporter gene assay.
Assay [3] is described as follows: Inhibition of NS5A in HuH7 cell infected HCV genotype 1b Con1 assessed as decrease in viral replication after 3 days by luciferase reporter gene assay.
Assay [4] is described as follows: Inhibition of HCV genotype 1b Con1 NS5A expressed in HuH7 cell infected HCV genotype 2a assessed as decrease in viral replication after 3 days by luciferase reporter gene assay.
Assay [5] in a line: Inhibition of NS5A in HuH7 cell infected HCV genotype 1b Con1 assessed as decrease in viral replication after 3 days in presence of 40% human plasma by luciferase reporter gene assay.
Assay [6] in a line: Inhibition of HCV genotype 1b Con1 NS5A expressed in HuH7 cell infected HCV genotype 2b assessed as decrease in viral replication after 3 days by luciferase reporter gene assay.
The nature of assay [7]: Inhibition of HCV genotype 1b Con1 NS5A expressed in HuH7 cell infected HCV genotype 6a assessed as decrease in viral replication after 3 days by luciferase reporter gene assay.
Assay [8] can be described thus: Inhibition of HCV genotype 1b Con1 NS5A expressed in HuH7 cell infected HCV genotype 4a assessed as decrease in viral replication after 3 days by luciferase reporter gene assay.
Assay [9] in a line: Inhibition of NS5A in HuH7 cell infected HCV genotype 1a H77 assessed as decrease in viral replication after 3 days by luciferase reporter gene assay.
The nature of assay [10]: Inhibition of HCV genotype 1b Con1 NS5A expressed in HuH7 cell infected HCV genotype 5a assessed as decrease in viral replication after 3 days by luciferase reporter gene assay.

pEC50: −log10 of the molar value.

As for `COC(=O)N[C@H](C(=O)N1CCC[C@H]1c1nc2cc([C@H]3CC[C@H](c4cc5nc([C@@H]6CCCN6C(=O)[C@@H](NC(=O)OC)[C@@H](C)OC)[nH]c5cc4F)N3c3cc(F)c(N4CCC(c5ccc(F)cc5)CC4)c(F)c3)c(F)cc2[nH]1)[C@@H](C)OC` [A-1325912.0], the pEC50 (in general, −log10 of the EC50, conventionally taken in molar units) in [1] was 10.19; in [2], 11.68; in assay [3], 11.37; in assay [4] it was 11.64; in assay [5], 9.70; in [6] it was 11.72. Further, the negative logarithm of the EC50 (pEC50) is 11.55 in assay [7], 11.72 in [8], 11.74 in [9] and 11.85 in [10].

For `COC(=O)N[C@H](C(=O)N1CCC[C@H]1C(=O)Nc1ccc([C@@H]2CC[C@@H](c3ccc(NC(=O)[C@@H]4CCCN4C(=O)[C@@H](NC(=O)OC)C(C)C)cc3)N2c2ccc(C(C)(C)C)cc2)cc1)C(C)C` [CHEBI:85183], the pEC50 in assay [1] is 9.73; in assay [2], 10.72; in assay [3] it was 11.30; in assay [4], 10.92; in assay [5] it was 10.25; in assay [6], 11.37. Further, the pEC50 is 9.44 in assay [7], 11.77 in assay [8], 10.85 in assay [9] and 11.49 in assay [10].
